Some results are limits rather than exact numbers.

The first experiment has as its target Glutamate receptor ionotropic, AMPA (Rattus norvegicus, UniProt P19490+P19491+P19492+P19493). Kind of experiment: In vitro binding assay for the displacement of [3H]AMPA from AMPA receptor. Type of experiment: protein-complex assay.
Regarding `O=C(NCc1cc(Br)cc2[nH]c(=O)c(=O)[nH]c12)c1ccco1`, the IC50 amounted to 6.8 µM.
The same measure, in the same setting: to `O=C(Cc1ccccc1)NCc1cc([N+](=O)[O-])cc2[nH]c(=O)c(=O)[nH]c12` belongs 28.8 µM; to `O=C(NCc1cc(Br)cc2nc(O)c(O)nc12)c1ccccc1`, 1.7 µM; to `COc1cc(C(=O)NCc2cc([N+](=O)[O-])cc3[nH]c(=O)c(=O)[nH]c23)cc(OC)c1OC`, 0.064 µM.
As for `COc1cccc(CC(=O)NCc2cc(Br)cc3[nH]c(=O)c(=O)[nH]c23)c1`, the IC50 is > 10 µM.
In turn, `COc1ccc(NC(=O)NCc2cc([N+](=O)[O-])cc3[nH]c(=O)c(=O)[nH]c23)cc1` displayed an IC50 of 0.3 µM.
Still for that read-out and setting: to `O=C(Cc1cccc(Cl)c1)NCc1cc(Br)cc2nc(O)c(O)nc12` belongs > 10 µM; to `O=C(NCc1cc([N+](=O)[O-])cc2nc(O)c(O)nc12)Nc1ccccc1`, 4.34 µM.
Compound `O=C(NCc1cc([N+](=O)[O-])cc2[nH]c(=O)c(=O)[nH]c12)c1cc(O)c(O)c(O)c1` yielded an IC50 of 0.13 µM.
On to `O=C(NCc1cc(Br)cc2nc(O)c(O)nc12)c1cc(C(F)(F)F)cc(C(F)(F)F)c1`, for which the IC50 was > 10 µM.
The same measure, in the same setting: the same measure for `O=C(NCc1cc(Br)cc2[nH]c(=O)c(=O)[nH]c12)C(O)c1ccccc1` (stereo unspecified): ~10 µM.
Still for that read-out and setting: the same measure for `NS(=O)(=O)c1ccc(C(=O)NCc2cc([N+](=O)[O-])cc3[nH]c(=O)c(=O)[nH]c23)cc1`: 0.2 µM; for `O=C(NCc1cc(Br)cc2[nH]c(=O)c(=O)[nH]c12)C(=O)c1ccccc1`: > 10 µM.
The same measure, in the same setting: the same measure for `O=C(Cc1cccc([N+](=O)[O-])c1)NCc1cc(Br)cc2[nH]c(=O)c(=O)[nH]c12`: > 10 µM.
Take `O=C(Cc1ccccc1)NCc1cc(Cl)cc2nc(O)c(O)nc12`: the IC50 is ~10 µM.
Still for that read-out and setting: the same measure for `O=C(Cc1ccccc1)NCc1cc(Br)cc2[nH]c(=O)c(=O)[nH]c12`: > 10 µM; for `CC(=O)OC(C(=O)NCc1cc(Br)cc2nc(O)c(O)nc12)c1ccccc1` (stereo unspecified): > 10 µM.
In turn, `O=C(NCc1cc([N+](=O)[O-])cc2[nH]c(=O)c(=O)[nH]c12)c1ccccc1O` returned an IC50 of 0.15 µM.
Still for that read-out and setting: the same measure for `O=C(NCc1cc(Br)cc2[nH]c(=O)c(=O)[nH]c12)Oc1ccccc1`: > 10 µM; for `O=C(Cc1ccc2c(c1)OCO2)NCc1cc(Br)cc2[nH]c(=O)c(=O)[nH]c12`: > 10 µM; for `COc1ccc(CC(=O)NCc2cc(Br)cc3[nH]c(=O)c(=O)[nH]c23)cc1OC`: > 10 µM.
As to `O=C(CCc1ccccc1)NCc1cc(Br)cc2nc(O)c(O)nc12`, the IC50 was > 10 µM.
On the same count and under the same terms, the same measure for `COc1ccccc1NC(=O)NCc1cc([N+](=O)[O-])cc2nc(O)c(O)nc12`: 0.63 µM.
The same measure, in the same setting: the same measure for `O=C(NCc1cc(Br)cc2nc(O)c(O)nc12)c1cccs1`: 1.6 µM; for `O=C(Cc1ccc(Cl)cc1)NCc1cc(Br)cc2nc(O)c(O)nc12`: > 10 µM; for `Nc1ccccc1C(=O)NCc1cc([N+](=O)[O-])cc2[nH]c(=O)c(=O)[nH]c12`: 0.3 µM.
On the same count and under the same terms, to `O=C(Cc1ccsc1)NCc1cc(Br)cc2nc(O)c(O)nc12` belongs 11.3 µM; to `O=C(Cc1ccc([N+](=O)[O-])cc1)NCc1cc(Br)cc2nc(O)c(O)nc12`, > 10 µM; to `O=C(Cc1ccccc1Cl)NCc1cc(Br)cc2[nH]c(=O)c(=O)[nH]c12`, > 10 µM.
Turning to `O=C(Cc1ccccc1[N+](=O)[O-])NCc1cc(Br)cc2nc(O)c(O)nc12`, the 50% inhibitory concentration (IC50) is > 10 µM.
On to `O=C(NCc1cc(Br)cc2nc(O)c(O)nc12)OCc1ccccc1`, for which the IC50 was ~10 µM.
Regarding `CC(C(=O)NCc1cc(Br)cc2nc(O)c(O)nc12)c1ccccc1` (stereo unspecified), the IC50 was ~10 µM.
Regarding `Cc1ccsc1C(=O)NCc1cc(Br)cc2nc(O)c(O)nc12`, the IC50 was ~10 µM.
As for `O=C(NCc1cc(Br)cc2[nH]c(=O)c(=O)[nH]c12)c1ccsc1`, the half-inhibitory concentration (IC50) turned out to be 2 µM.
Take `O=C(Cc1ccccc1)NCc1cc(P(=O)(O)O)cc2[nH]c(=O)c(=O)[nH]c12`: the IC50 was > 10 µM.
Still for that read-out and setting: the same measure for `O=C(NCc1cc([N+](=O)[O-])cc2nc(O)c(O)nc12)Nc1ccc(OC(F)(F)F)cc1`: 1.1 µM.
Still for that read-out and setting: to `Cc1ccc(C(=O)NCc2cc(Br)cc3[nH]c(=O)c(=O)[nH]c23)s1` belongs 1.7 µM; to `O=C(Cc1ccccc1)NCc1cccc2[nH]c(=O)c(=O)[nH]c12`, > 10 µM.
Still for that read-out and setting: to `Cn1cccc1C(=O)NCc1cc(Br)cc2[nH]c(=O)c(=O)[nH]c12` belongs > 10 µM; to `O=C(NCc1cc(Br)cc2nc(O)c(O)nc12)c1cccnc1`, 4.3 µM; to `Cc1ccc(C(=O)NCc2cc(Br)cc3nc(O)c(O)nc23)cn1`, ~10 µM.
For the compound `Cc1ncccc1C(=O)NCc1cc(Br)cc2nc(O)c(O)nc12`, the IC50 is ~10 µM.
Same read-out and setting: to `O=C(NCc1cc(Br)cc2nc(O)c(O)nc12)c1ccncc1` belongs ~10 µM.

The target of another experiment is Glutamate receptor ionotropic, NMDA 1 (Rattus norvegicus, UniProt P35439). The experiment can be described thus: In vitro binding assay for the displacement of [3H]MDL-105519 from the glycine-site of NMDA receptors.
`O=C(NCc1cc(Br)cc2[nH]c(=O)c(=O)[nH]c12)c1ccco1` displayed an IC50 of 0.04 µM.
Still for that read-out and setting: the same measure for `O=C(Cc1ccccc1)NCc1cc([N+](=O)[O-])cc2[nH]c(=O)c(=O)[nH]c12`: 0.04 µM; for `O=C(NCc1cc(Br)cc2nc(O)c(O)nc12)c1ccccc1`: 0.06 µM.
On the same count and under the same terms, the same measure for `COc1cc(C(=O)NCc2cc([N+](=O)[O-])cc3[nH]c(=O)c(=O)[nH]c23)cc(OC)c1OC`: 0.2 µM; for `COc1cccc(CC(=O)NCc2cc(Br)cc3[nH]c(=O)c(=O)[nH]c23)c1`: 0.03 µM.
Same read-out and setting: to `COc1ccc(NC(=O)NCc2cc([N+](=O)[O-])cc3[nH]c(=O)c(=O)[nH]c23)cc1` belongs 0.03 µM; to `O=C(Cc1cccc(Cl)c1)NCc1cc(Br)cc2nc(O)c(O)nc12`, 0.04 µM.
As to `O=C(NCc1cc([N+](=O)[O-])cc2nc(O)c(O)nc12)Nc1ccccc1`, the IC50 is 0.9 µM.
For the compound `O=C(NCc1cc([N+](=O)[O-])cc2[nH]c(=O)c(=O)[nH]c12)c1cc(O)c(O)c(O)c1`, the IC50 is 0.15 µM.
In the case of `O=C(NCc1cc(Br)cc2nc(O)c(O)nc12)c1cc(C(F)(F)F)cc(C(F)(F)F)c1`, the IC50 was > 10 µM.
In turn, `O=C(NCc1cc(Br)cc2[nH]c(=O)c(=O)[nH]c12)C(O)c1ccccc1` (stereo unspecified) came in with an IC50 of 0.05 µM.
Still for that read-out and setting: the same measure for `NS(=O)(=O)c1ccc(C(=O)NCc2cc([N+](=O)[O-])cc3[nH]c(=O)c(=O)[nH]c23)cc1`: 0.63 µM.
Still for that read-out and setting: the same measure for `O=C(NCc1cc(Br)cc2[nH]c(=O)c(=O)[nH]c12)C(=O)c1ccccc1`: 4 µM; for `O=C(Cc1cccc([N+](=O)[O-])c1)NCc1cc(Br)cc2[nH]c(=O)c(=O)[nH]c12`: 0.04 µM.
The same measure, in the same setting: to `O=C(Cc1ccccc1)NCc1cc(Cl)cc2nc(O)c(O)nc12` belongs 0.01 µM.
Turning to `O=C(Cc1ccccc1)NCc1cc(Br)cc2[nH]c(=O)c(=O)[nH]c12`, the half-inhibitory concentration (IC50) was 0.01 µM.
Same read-out and setting: to `CC(=O)OC(C(=O)NCc1cc(Br)cc2nc(O)c(O)nc12)c1ccccc1` (stereo unspecified) belongs 0.04 µM; to `O=C(NCc1cc([N+](=O)[O-])cc2[nH]c(=O)c(=O)[nH]c12)c1ccccc1O`, 0.04 µM; to `O=C(NCc1cc(Br)cc2[nH]c(=O)c(=O)[nH]c12)Oc1ccccc1`, 1.5 µM.
Still for that read-out and setting: to `O=C(Cc1ccc2c(c1)OCO2)NCc1cc(Br)cc2[nH]c(=O)c(=O)[nH]c12` belongs 3.9 µM.
For `COc1ccc(CC(=O)NCc2cc(Br)cc3[nH]c(=O)c(=O)[nH]c23)cc1OC`, the concentration for half-maximal inhibition (IC50) was determined as 0.05 µM.
The compound `O=C(CCc1ccccc1)NCc1cc(Br)cc2nc(O)c(O)nc12` gave an IC50 of 0.86 µM.
The same measure, in the same setting: the same measure for `COc1ccccc1NC(=O)NCc1cc([N+](=O)[O-])cc2nc(O)c(O)nc12`: 0.03 µM; for `O=C(NCc1cc(Br)cc2nc(O)c(O)nc12)c1cccs1`: 0.01 µM; for `O=C(Cc1ccc(Cl)cc1)NCc1cc(Br)cc2nc(O)c(O)nc12`: 20 µM.
The compound `Nc1ccccc1C(=O)NCc1cc([N+](=O)[O-])cc2[nH]c(=O)c(=O)[nH]c12` gave an IC50 of 0.17 µM.
The same measure, in the same setting: to `O=C(Cc1ccsc1)NCc1cc(Br)cc2nc(O)c(O)nc12` belongs 0.01 µM.
`O=C(Cc1ccc([N+](=O)[O-])cc1)NCc1cc(Br)cc2nc(O)c(O)nc12` came in with an IC50 of 1.2 µM.
Turning to `O=C(Cc1ccccc1Cl)NCc1cc(Br)cc2[nH]c(=O)c(=O)[nH]c12`, the IC50 turned out to be 0.007 µM.
Compound `O=C(Cc1ccccc1[N+](=O)[O-])NCc1cc(Br)cc2nc(O)c(O)nc12` came in with an IC50 of 0.02 µM.
The compound `O=C(NCc1cc(Br)cc2nc(O)c(O)nc12)OCc1ccccc1` came in with an IC50 of 0.11 µM.
Same read-out and setting: the same measure for `CC(C(=O)NCc1cc(Br)cc2nc(O)c(O)nc12)c1ccccc1` (stereo unspecified): 0.01 µM.
In turn, `Cc1ccsc1C(=O)NCc1cc(Br)cc2nc(O)c(O)nc12` had a concentration for half-maximal inhibition (IC50) of 0.02 µM.
On to `O=C(NCc1cc(Br)cc2[nH]c(=O)c(=O)[nH]c12)c1ccsc1`, for which the IC50 is 0.01 µM.
Consider `O=C(Cc1ccccc1)NCc1cc(P(=O)(O)O)cc2[nH]c(=O)c(=O)[nH]c12`, for which the IC50 is > 10 µM.
Same read-out and setting: the same measure for `O=C(NCc1cc([N+](=O)[O-])cc2nc(O)c(O)nc12)Nc1ccc(OC(F)(F)F)cc1`: 0.35 µM.
`Cc1ccc(C(=O)NCc2cc(Br)cc3[nH]c(=O)c(=O)[nH]c23)s1` showed an IC50 of 0.03 µM.
On the same count and under the same terms, to `O=C(Cc1ccccc1)NCc1cccc2[nH]c(=O)c(=O)[nH]c12` belongs 0.09 µM; to `Cn1cccc1C(=O)NCc1cc(Br)cc2[nH]c(=O)c(=O)[nH]c12`, 0.02 µM; to `O=C(NCc1cc(Br)cc2nc(O)c(O)nc12)c1cccnc1`, 0.28 µM.
On the same count and under the same terms, the same measure for `Cc1ccc(C(=O)NCc2cc(Br)cc3nc(O)c(O)nc23)cn1`: 0.11 µM; for `Cc1ncccc1C(=O)NCc1cc(Br)cc2nc(O)c(O)nc12`: 1.8 µM.
Still for that read-out and setting: to `O=C(NCc1cc(Br)cc2nc(O)c(O)nc12)c1ccncc1` belongs 0.25 µM.

These data come from ChEMBL document CHEMBL1130765, “5-Aminomethylquinoxaline-2,3-diones, Part III: Arylamide derivatives as highly potent and selective glycine-site NMDA receptor antagonists” (Bioorg Med Chem Lett, 1998).
